From US10836954B2 (priority 2015, dated 2020)

Key:
Pseudomonas Fluorescens [1] = assay type: cell-based; conditions: breaker 1.0 gpt added to 0.25 gpt biocide; 1% KCl water pH 7.7, 77° F., 1 h and 5 h
Experimental: 500 mL of 1% KCl water, buffered with sodium bicarbonate to pH 7.7 was inoculated with 10 mL of a Nutrient Broth containing live Pseudomonas f. and blended on a Waring lab blender at 2000 rpm for 5 minutes. After blending, it was separated into 30 mL samples in separate bottles. The first and last bottles were left without biocide or breaker to act as controls. The remaining samples were treated with varying concentrations of biocide and oxidizing breakers.
Biocidal activity analysis was completed using a […]® PhotonMaster™ luminometer and Quench-Gone™ Organic Modified (QGO-M) ATP test kit. At the initial time (Time 0), both control samples were tested using the ATP kit. All samples were then incubated at 77° F. All samples (5 mL) were then tested using the ATP kit at one hour and again at 5 hours.

Pseudomonas Fluorescens [2] = conditions: well water, 72° F.
Experimental: The biocidal activity of THPS/oxidizing breaker compositions against Pseudomonas Fluorescens was examined. In the first experiment, 2 L of well water was inoculated with 4 mL of a Nutrient Broth containing live Pseudomonas f. and stirred using an overhead mixer at 2000 rpm. After thorough mixing, and with the mixer running, 150 mL samples were taken with a syringe and inserted into separate bottles. The first and last bottles were left without biocide or breaker to act as controls. The remaining samples were treated with varying concentrations of biocide and oxidizing breakers.
Biocidal activity analysis was completed using a […]® PhotonMaster™ luminometer and Quench-Gone™ Organic Modified (QGO-M) ATP test kit. At the initial time (Time 0), both control samples were tested using the ATP kit. All samples were then left at ambient lab temperature (72° F.). All samples (20 mL each) were then tested using the ATP kit at one hour and at 24 hours.

OO [hydrogen peroxide 7%, hydrogen peroxide]
effect of added breaker on decrease in microbial activity (ATP analysis) (Pseudomonas Fluorescens [1]): may be accelerated or enhanced slightly

sodium chlorite [sodium chlorite 8%]
effect of added breaker on decrease in microbial activity (ATP analysis) (Pseudomonas Fluorescens [1]): may be accelerated or enhanced slightly

tetrakis(hydroxymethyl)phosphonium sulphate [THPS]
compatibility of biocidal activity with oxidizing breakers (ATP analysis) (Pseudomonas Fluorescens [2]; THPS 20% 0.25 or 0.50 gpt with sodium persulfate, hydrogen peroxide 7% or sodium chlorite 8%, 1 h and 24 h): no apparent incompatibility
effect of addition of the breakers on biocidal properties (ATP analysis) (Pseudomonas Fluorescens [2]; THPS concentration of 0.25 gpt, 1 h and 24 h (FIG. 5)): appears to enhance or accelerate the biocidal properties
